Patent US9133154B2, “Substituted 3-phenylpropylamine derivatives for the treatment of ophthalmic diseases and disorders” (Acucela Inc., priority 2013, dated 2015)
“Also recorded” adds a separate entry of the source. Where two headings read alike, the source gives them in different places.

Tests used:
[1] = target: T1, recombinant human RPE65 and LRAT (visual cycle isomerase) (Homo sapiens, UniProt Q16518); experiment: Human in vitro isomerase inhibition assay; settings: comparison compounds
T1 sequence (Q16518 2-533): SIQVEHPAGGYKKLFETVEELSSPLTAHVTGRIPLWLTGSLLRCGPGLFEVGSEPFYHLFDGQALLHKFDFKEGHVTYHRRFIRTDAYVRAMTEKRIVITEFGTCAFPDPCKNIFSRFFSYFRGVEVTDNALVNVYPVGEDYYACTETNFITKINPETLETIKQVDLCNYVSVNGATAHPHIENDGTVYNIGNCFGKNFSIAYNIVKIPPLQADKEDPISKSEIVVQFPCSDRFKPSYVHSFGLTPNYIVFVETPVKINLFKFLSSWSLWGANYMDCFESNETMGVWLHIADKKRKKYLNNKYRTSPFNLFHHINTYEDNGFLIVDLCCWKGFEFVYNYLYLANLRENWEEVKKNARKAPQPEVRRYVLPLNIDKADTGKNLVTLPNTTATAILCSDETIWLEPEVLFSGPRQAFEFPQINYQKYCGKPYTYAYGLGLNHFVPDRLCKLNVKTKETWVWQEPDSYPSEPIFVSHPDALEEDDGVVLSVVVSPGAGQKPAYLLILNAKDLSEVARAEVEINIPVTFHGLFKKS

[2] = system: isomerase (recovery of 11-cis-retinal after bleaching); experiment: In vivo murine isomerase assay; settings: mice, oral gavage
Procedure: The capability of compounds described herein to inhibit isomerase was determined by an in vivo murine isomerase assay. […] The recovery of 11-cis-retinal after bleaching can be used to estimate the activity of isomerase in vivo. Delayed recovery, as represented by lower 11-cis-retinal oxime levels, indicates inhibition of isomerization reaction.
Mice were gavaged with the test compound. […] The mice were allowed to recover 2 hours in the dark. The animals were then sacrificed by carbon dioxide inhalation. Retinoids were extracted from the eye and the regeneration of 11-cis-retinal was assessed at various time intervals.
After the mice were sacrificed, the eyes were immediately removed and placed in liquid nitrogen for storage.
The eyes were placed in 500 μL of bis-tris propane buffer (10 mM, pH˜7.3) and 20 μL of 0.8M hydroxile amine (pH˜7.3). The eyes were cut up into small pieces with small iris scissors and then thoroughly homogenized at 30000 rpm with a mechanical homogenizer (Polytron PT 1300 D) in the tube until no visible tissue remained. 500 μL of methanol and 500 μL of heptane were added to each tube. The tubes were attached to a vortexer so that the contents were mixed thoroughly for 15 minutes in room temperature. The organic phase was separated from the aqueous phase by centrifugation for 10 min at 13K rpm, 4° C. 240 μL of the solution from the top layer (organic phase) was removed and transferred to clean 300 μl glass inserts in HPLC vials using glass pipette and the vials were crimped shut tightly.
The samples were analyzed on an Agilent 1100 HPLC system with normal phase column: SILICA (Beckman Coutlier, dp 5 μm, 4.6 mM×250 mM). […] Loading volume for each sample was 100 μA detection wavelength was 360 nm. The area under the curve for 11-cis retinal oxime was calculated by Agilent Chemstation software and was recorded manually. Data processing was performed using Prizm software.
Positive control mice (no compound administered) were sacrificed fully dark-adapted and the eye retinoids analyzed. Light (bleached) control mice (no compound administered) were sacrificed and retinoids isolated and analyzed immediately after light treatment.
A time course study was performed to determine the isomerase inhibitory activity of the test compound. […] The animals were then “photo-bleached” (5000 Lux white light for 10 minutes) at 2, 4, 8, 16 and 24 hours after dosing, and returned to darkness to allow recovery of the 11-cis-retinal content of the eyes. Mice were sacrificed 2 hours after bleaching, eyes were enucleated, and retinoid content is analyzed by HPLC.
Recovery control mice (vehicle-only treated) were light-treated and left to recover for 2 hours in the dark before sacrifice and analysis. Light control mice (vehicle only treated) were sacrificed for analysis immediately after photo-bleaching.
An in vivo dose response isomerase inhibition study was performed with test compound. […] Recovery and retinoid analysis were performed as described above. Dark control mice were vehicle-only treated, sacrificed fully dark adapted without light treatment, and analyzed. Recovery control mice and light control mice were included in the study as per the initial phase.

[3] = system: retinal isomerase activity (recovery of 11-cis-retinal); experiment: Comparative in vivo murine isomerase assay, dose response; set-up: species or system BALB/c mice; settings: BALB/c mice, 2 hours; for Avg. % Inhibition: 11-cis-retinal, drug vs. recovery control
Procedure: (§1) All test compounds were stored at room temperature, dessicated.
On the day prior to dose administration compound A and compound D were weighed into new empty glass vials. The compounds were dissolved in di-water at the concentration of 0.833 mg/mL compound A and 0.892 mg/mL compound D, serially diluted into various concentrations, and stored overnight at 4° C.
56 Male BALB/c mice (Charles River Laboratories) were used for this study. The mice were approximately 8 weeks at the initiation of dosing with an average body weight of 24 grams.
The day prior to dose administration 56 BALB/c mice were placed into a dark room and dark adapted for a minimum of 12 hours prior to dose administration. The mice were maintained in the dark for the duration of the study.
(§2) Each animal was removed from its cage and dosed accordingly to the study design in Table 4 (see below). Each animal was administered 0.1 mL of the appropriate compound or vehicle via oral gavage using a 1 mL syringe fitted with a 23 gauge oral gavage needle. Two hours following dose administration, animals were removed from the dark and exposed to 5000 Lux white light for 10 minutes to photobleach their eyes. Following the completion of the photobleach the animals were returned to the dark for 2 hours to allow for the regeneration of 11-cis-retinal in the eyes. Two hours after photobleaching each animal was euthanized with carbon dioxide followed by cervical dislocation, in the dark under red light. The light control group was euthanized immediately following photobleaching. Immediately following the cervical dislocation both eyes of each animal were removed and transferred into separate tubes, flash frozen in liquid nitrogen and stored in the dark at −80° C. until processing and analysis.
(§3) All sample processing procedures were performed in the dark under red light.
Extracted samples were analyzed using an Agilent 1100 HPLC system according to the procedure outlined in Table 6 (see below)
(§4) HPLC analysis of the eyes measures the peak area units of the 110cis-Ral-Oxime_syn. Signal.
(§5) Data analysis % inhibition (drug vs. recovery control). % control (drug vs. light control), and One-way ANOVA (followed by Tukey's Multiple Comparison) were performed using peak area units and performed by Prism software. Data are represented as mean and standard deviation.

[4] = system: regeneration of 11-cis-retinal; experiment: Single dose time course in the in vivo isomerase assay at 0.3 mg/kg; set-up: species or system BALB/c mice; settings: BALB/c mice, single oral 0.3 mg/kg; for activity at 0.3 mg/kg: Mus musculus, read-out: Percent Control (Avg. % Inhibition)
Procedure: as §1
The compounds were dissolved in di-water at the concentration of 0.068 mg/mL and stored overnight at 4° C.
52 Male BALB/c mice (Charles River Laboratories) were used for this study. The mice were approximately 8 weeks at the initiation of dosing with an average body weight of 23 grams.
The day prior to dose administration 52 BALB/c mice were placed into a dark room and dark adapted for a minimum of 12 hours prior to dose administration. The mice were maintained in the dark for the duration of the study.
as §2, with “Table 10” for “Table 4”, “appropriate test article” for “appropriate compound”, “vehicle orally” for “vehicle via oral gavage”, “needle. At 2, 4, 6, 8, 16 or 24” for “needle. Two”
as §3
Extracted samples were analyzed using an Agilent 1100 HPLC system according to the procedure outlined in Table 12 (see below)
as §4, §5

NCC[C@@H](O)c1cccc(NCC2CCCCC2)c1
IC50 [1]: 6.3 nM

NCC[C@@H](O)c1cccc(OCC2CCCOC2)c1 (mixture of isomers) [Example 3, (1R)-3-Amino-1-(3-((tetrahydro-2H-pyran-3-yl)methoxy)phenyl)propan-1-ol]
% Inhibition ([2]; dose 0.3 mg/kg, time 2 h): 75.1%

COC(=O)N1CCC(COc2cccc([C@H](O)CCN)c2)CC1 [Example 17, (R)-Methyl 4-((3-(3-amino-1-hydroxypropyl)phenoxy)methyl)piperidine-1-carboxylate]
% Inhibition ([2]; dose 1 mg/kg, time 4 h): 85%

NCCC(O)c1cccc(OCC2CCCCO2)c1 (stereo not shown) [compound D, reference compound]
Avg. % Inhibition ([3]; oral 0.3 mg/kg, 0.3 mg/kg): no inhibition
Avg. % Inhibition ([3]; oral 3 mg/kg, 3 mg/kg): same level of inhibition
significance of inhibitory effect on the recovery of 11-cis-retinal vs. recovery control ([3]; single oral dose 0.03-3 mg/kg): statistically significant difference, P<0.001 for 1 and 3 mg/kg dose levels; also recorded: significant inhibitory effect at 1 mg/kg and 3 mg/kg dose levels
IC50 (dose response experiment) ([3]; single oral dose): 0.59 mg/kg
dose at which 11-cis-retinal recovery was inhibited by 50% ([3]; single oral dose): 0.59 mg/kg
significance of inhibitory effect on the recovery of 11-cis-retinal vs. recovery control ([4]; 2, 4, 6, 8, 16 and 24 hours, 0.3 mg/kg): not a statistically significant difference, P>0.05 for any time points; also recorded: no significant inhibitory effect at any time points; also recorded: did not exhibit a significant difference from the control group at any time point
activity at 0.3 mg/kg ([4]; time point 2 hours): 86.8%
activity at 0.3 mg/kg ([4]; time point 4 hours): 102%
activity at 0.3 mg/kg ([4]; time point 6 hours): 87.9%
activity at 0.3 mg/kg ([4]; time point 8 hours): 94.6%
activity at 0.3 mg/kg ([4]; time point 16 hours): 104%
activity at 0.3 mg/kg ([4]; time point 24 hours): 89.5%
IC50 [1]: 24 nM
